This is an account of results in US20230348454A1, “COMPOUNDS AS MODULATORS OF BIS-PHOSPHOGLYCERATE MUTASE FOR THE TREATMENT OF SICKLE CELL DISEASE” (Genzyme Corporation, priority 2020, published 2023).

pIC50: −log10 of the molar value.

The target in this test is T1, hBPGM (Homo sapiens, UniProt P07738).
T1 sequence (P07738 1-259): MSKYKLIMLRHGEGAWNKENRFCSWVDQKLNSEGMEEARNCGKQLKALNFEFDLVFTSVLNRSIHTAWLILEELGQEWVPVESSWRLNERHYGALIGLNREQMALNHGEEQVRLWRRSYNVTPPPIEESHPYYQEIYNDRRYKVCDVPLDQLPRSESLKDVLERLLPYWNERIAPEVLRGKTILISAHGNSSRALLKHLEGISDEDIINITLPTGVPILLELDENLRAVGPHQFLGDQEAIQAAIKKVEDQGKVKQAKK
As to the kind of experiment: BPGM synthase assay. Type of test: biochemical. The settings on record: Table 6; read-out: huBPGM: synthase Enzyme IC50. The method, then:
The following materials were used in this assay: deionized water; Bisphosphoglycerate mutase (BPGM; Standard Buffer: 50 mM Tris, 0.01% Tween 20, pH 7.4); BPGM Reaction Buffer (50 mM Tris, 0.01% Tween 20, 3.23 mM KH2PO4, pH 7.4); dithiothreitol (DTT; Stock solution: 100 mM in Standard Buffer); 384-Well Black Assay Plate (Corning, P/N 3575); DMSO; BPGM Stock Solution (500 nM in BPGM Standard Buffer); Glyceraldehyde 3-phosphate dehydrogenase (GAPDH; Stock Solution: 40 U/mL in 20 mM Tris-HCL Buffer with 20% Glycerol, 1 mM EDTA, 1 mM DTT); Glyceraldehyde 3-phosphate (GAP; Stock Solution: 20 mM in BPGM Standard Buffer); 3-PG Stock Solution (500 μM in BPGM Standard Buffer); Nicotinamide adenine dinucleotide (NAD; Stock Solution: 50 mM in BPGM Standard Buffer); Koningic Acid (1 mM Stock in DMSO); Resazurin Stock Solution (10 mM in DMSO); Diaphorase Stock Solution (40 U/mL in BPGM Standard Buffer); DTT Reaction Buffer (1 mM DTT in BPGM Reaction Buffer); Enzyme Solution (5 nM BPGM, 0.4 U/mL GAPDH in DTT Reaction Buffer); GAPDH Solution (0.4 U/mL GAPDH in DTT Reaction Buffer); Substrate Solution (2 mM NAD, 20 μM 3PG, 800 μM GAP in DTT Reaction Buffer); and Resazurin Solution (5 U/mL Diaphorase, 500 μM Resazurin in BPGM Standard Buffer).
To the assay plate was added Enzyme Solution (20 uL) to columns 2-22 and 24 of the assay plate. To columns 1 and 23 was added GAPDH Solution (20 uL). A separate compound plate was prepared at the desired concentrations and all wells were normalized with 5% DMSO. The compound plate was incubated for 30 minutes at RT. Next, the substrate solution (20 μL) was dispensed to all reaction wells and the plate was incubated for 60 minutes at RT. Koningic acid (1 μL) was added and the plate was incubated for 10 minutes at RT. During this time period, the NADH fluorescence was read at ex: 360/em: 460. Next, Resazurin Solution (10 μL) was added to all reaction wells and the plate was incubated for 30 minutes at RT. The resorufin fluorescence was then read at ex:544/em:590.
One may read the pIC50 as −log10 of the IC50, conventionally taken in molar units. For `Cc1nc(COc2ccccn2)sc1-c1cccc(-c2cc(O)c(C#N)c(F)c2)n1` [Example 120], the pIC50 is 5.82.
In the case of `Cc1nc(CO)sc1-c1csc(-c2cc(F)c3[nH]nnc3c2F)n1` [Example 87], the negative-log IC50 (pIC50) is 6.42.
Next, `Cc1nc(COC(=O)N2CCC(O)C2)sc1-c1cccc(-c2cc(F)c3nn[nH]c3c2F)c1` (stereo not drawn) [Example 62]: 6.46; `Cc1nc(COc2ncccn2)sc1-c1cccc(-c2nnn[nH]2)n1` [Example 73]: below 4.60.
Under `Cc1nc(CNC(=O)N2CCC(O)C2)sc1-c1csc(-c2cc(F)c(O)c(F)c2F)n1` (stereo not drawn) [Example 92] stands 5.64; under `Cc1nc(COC(=O)N2CCC(N)C2)sc1-c1cccc(-c2cc(F)c(O)c(F)c2F)n1` (stereo not drawn) [Example 29], 5.24; under `Cc1nc(C)c(COc2cc(F)c3nn[nH]c3c2F)s1` [Example 215], below 4.60.
On to `Cc1nc(COC(C)C(=O)N(C)C)sc1-c1cccc(-c2cc(F)c3nn[nH]c3c2F)n1` (stereo not drawn) [Example 60], for which the pIC50 is 7.26.
Next, `Cc1nc(CNC(=O)C(C)(C)C)sc1-c1ccnc(-c2cc(F)c3nn[nH]c3c2F)n1` [Example 223]: 6.08; `Cc1nc(COC(=O)N(C)C)sc1-c1ccn(-c2cc(F)c3[nH]nnc3c2F)n1` [Example 46]: 6.89.
Under `Cc1nc(COc2cccnn2)sc1-c1cccc(-c2cc(F)c3nn[nH]c3c2F)n1` [Example 88] stands 7.62.
Under `Cc1nc(COC(=O)N2CCC(C)(O)C2)sc1-c1cccc(-c2cc(F)c3[nH]nnc3c2F)n1` (stereo not drawn) [Example 31] stands 7.46; under `Cc1nc(CNC(=O)N(C)C)sc1-c1cccc(-c2cc(F)c(O)c(F)c2F)n1` [Example 28], 5.80; under `Cc1nc(COCC(=O)N2CCC(O)C2)sc1-c1cccc(-c2cc(F)c3nn[nH]c3c2F)n1` (stereo not drawn) [Example 76], 5.96.
In the case of `Cc1nc(COCC(=O)N(C)C)sc1-c1cccc(-c2cc(F)c3nn[nH]c3c2F)n1` [Example 64], the pIC50 is 7.37.
Next, `COC(=O)NCc1nc(C)c(-c2cccc(-c3cc(F)c4nn[nH]c4c3F)n2)s1` [Example 122]: 7.48; `Cc1nc(COCC(=O)N2CCC(O)C2)sc1-c1csc(-c2cc(F)c(O)c(F)c2F)n1` (stereo not drawn) [Example 124]: 5.20.
Under `Cc1nc(CNCC(C)(C)C)sc1-c1cccc(-c2cc(F)c3nn[nH]c3c2F)n1` [Example 56] stands 6.59; under `Cc1nc(COCC(=O)N(C)C)sc1-c1csc(-c2cc(F)c3[nH]nnc3c2F)n1` [Example 49], 7.33; under `Cc1nc(C)c(-c2csc(-c3cc(F)c4[nH]nnc4c3)n2)s1` [Example 114], 5.92.
Under `Cc1nc(COc2ccccn2)sc1-c1cccc(-c2cc(F)c(O)c(F)c2)n1` [Example 199] stands 5.19; under `Cc1nc(-c2cccc(-c3sc(COc4ncccn4)nc3C)n2)nnc1O` [Example 230], below 4.60.
`Cc1nc(COc2ncccn2)sc1-c1ccnc(-c2cc(F)c(O)c(F)c2F)c1` [Example 57]: the negative logarithm of the IC50 (pIC50) is 6.54.
On to `CNCc1nc(C)c(-c2cccc(-c3cc(F)c4nn[nH]c4c3F)n2)s1` [Example 63], for which the pIC50 is 5.85.
For `Cc1nc(COc2ncccn2)sc1-c1ccnc(-c2cc(O)c(C#N)c(F)c2)c1` [Example 24], the pIC50 is 6.60.
Under `Cc1nc(COCC(=O)N2CCNCC2)sc1-c1csc(-c2cc(F)c(O)c(F)c2F)n1` [Example 115] stands 5.36; under `Cc1nc(C)c(CCOc2cc(F)c3nn[nH]c3c2F)s1` [Example 222], below 4.60.
Next, `Cc1nc(CNC(=O)C2CCN(C)CC2)sc1-c1csc(-c2cc(F)c3[nH]nnc3c2)n1` [Example 182]: 5.72; `Cc1nc(COc2cccnn2)sc1-c1nc(-c2cc(F)c(O)c(F)c2F)cs1` [Example 77]: 5.89.
Next, `Cc1nc(COC(=O)N(C)CCN(C)C)sc1-c1cccc(-c2cc(F)c(O)c(F)c2F)n1` [Example 36]: 5.89.
With `Cc1nc(COCC(=O)N(C)C)sc1-c1nc(-c2cc(F)c3nn[nH]c3c2F)cs1` [Example 48], the pIC50 is 7.51.
Under `Cc1nc(COCC2(O)CC2)sc1-c1cccc(-c2cc(F)c3nn[nH]c3c2F)n1` [Example 238] stands 7.31.
Next, `COC(=O)NCc1nc(C)c(-c2csc(-c3cc(F)c4[nH]nnc4c3F)n2)s1` [Example 67]: 7.30; `Cc1nc(COc2ncccn2)sc1-c1cccc(-c2cc(O)c(C#N)c(F)c2)n1` [Example 74]: 6.54.
Next, `Cc1nc(CNC(=O)C(C)(C)C)sc1-c1csc(-c2cc(F)c(O)c(F)c2F)n1` [Example 111]: 6.24; `Cc1nc(C)c(-c2csc(-c3cc(O)c(NS(=O)(=O)c4ccccc4)cc3F)n2)s1` [Example 180]: below 4.60.
On to `Cc1nc(COc2ncccn2)sc1-c1ccnc(-c2cc(F)c(O)c(C#N)c2)c1` [Example 58], for which the negative-log IC50 (pIC50) is 5.72.
Next, `Cc1nc(CNc2ncccn2)sc1-c1csc(-c2cc(F)c3[nH]nnc3c2F)n1` [Example 51]: 6.55; `Cc1nc(COc2ncccn2)sc1-c1cccc(-c2ccc3[nH]c(=O)[nH]c3c2)n1` [Example 128]: 5.17; `Cc1nc(COc2ncccn2)sc1-c1cccc(-c2cc(F)c3nnn(C)c3c2)n1` [Example 150]: below 4.00.
Regarding `Cc1nc(COCC(C)(C)O)sc1-c1nc(-c2cc(F)c3nn[nH]c3c2F)cs1` [Example 224], the negative-log IC50 (pIC50) was 7.52.
Next, `Cc1nc(C)c(-c2cccc(-c3ccc(C(=O)NS(=O)(=O)c4ccccc4)cc3)n2)s1` [Example 209]: 5.48; `Cc1nc(COC(=O)N2CCC(O)C2)sc1-c1csc(-c2cc(F)c3[nH]nnc3c2F)n1` (stereo not drawn) [Example 75]: 6.36; `Cc1nc(CN(C)CC(C)(C)O)sc1-c1cccc(-c2cc(F)c3nn[nH]c3c2F)n1` [Example 225]: 6.68.
Under `Cc1nc(COc2ccccn2)sc1-c1csc(-c2cc(F)c(O)c(F)c2)c1` [Example 198] stands 5.28; under `Cc1nc(COCC(C)(C)O)sc1-c1nc(-c2cc(F)c3nn[nH]c3c2)cs1` [Example 226], 7.09; under `Cc1nc(COc2ccccn2)sc1-c1cccc(-c2cc(F)c(O)c(C#N)c2)n1` [Example 121], 5.48.
Under `Cc1nc(COc2ncccn2)sc1-c1cccc(-c2ccc3c(c2)C(=O)NC3=O)n1` [Example 132] stands 5.09; under `COC(=O)NCc1nc(C)c(-c2csc(-c3cc(O)c(S(N)(=O)=O)cc3F)n2)s1` [Example 202], below 4.60; under `Cc1nc(COc2ncccn2)sc1-c1cccc(-c2ccc3oc(=O)[nH]c3c2)n1` [Example 212], 5.59.
On to `Cc1nc(COCC(=O)N2CCN(C)CC2)sc1-c1csc(-c2cc(F)c(O)c(F)c2F)n1` [Example 123], for which the pIC50 was 5.80.
Under `Cc1ncsc1-c1cccc(-c2cc(F)c3[nH]nnc3c2F)n1` [Example 216] stands 5.27.
Next, `COCC1CCCN1C(=O)OCc1nc(C)c(-c2cccc(-c3cc(F)c4nn[nH]c4c3F)n2)s1` (stereo not drawn) [Example 40]: 7.36.
Next, `Cc1nc(COc2ncccn2)sc1-c1cccc(-c2cc(F)c(O)c(C#N)c2F)n1` [Example 231]: 7.06; `Cc1nc(Cc2ccccn2)sc1-c1cccc(-c2ccc(C(=O)NS(=O)(=O)c3ccccc3)cc2)c1` [Example 211]: 6.13; `Cc1nc(CNC(=O)c2cnn(C)c2)sc1-c1csc(-c2cc(F)c(O)c(F)c2F)n1` [Example 113]: 6.28.
Regarding `Cc1nc(C)c(-c2csc(-c3cc(F)c4[nH]nnc4c3F)n2)s1` [Example 86], the negative logarithm of the IC50 (pIC50) is 6.85.
As to `Cc1nc(C(=O)N2CCC(O)C2)sc1-c1cccc(-c2cc(F)c3[nH]nnc3c2F)n1` (stereo not drawn) [Example 25], the pIC50 is 5.36.
Take `Cc1nc(COc2ncccn2)sc1-c1csc(-c2cc(F)c(O)c(F)c2F)n1` [Example 70]: the pIC50 was 6.70.
Next, `Cc1nc(CNC(=O)C2CCN(C)CC2)sc1-c1csc(-c2cc(F)c(O)c(F)c2F)n1` [Example 93]: 5.05.
